We go through 34 compounds from a melting point compilation (Tetko et al.; mined from patent text by program, amines drawn as free bases though some values may be those of a salt).

SMILES strings stand for the structures.

By melting point is commonly meant the temperature of the solid-liquid transition. Take `CN=C(NS(=O)(=O)N1CCC(F)(F)CC1)N1CC(c2ccccc2)C(c2ccc(Cl)cc2)=N1` (centres undefined): the melting point lay in the range of 158 to 160 °C.

Regarding `COC(=O)CCC(=C1SCCCS1)c1ccc(Oc2ccccc2)cc1`, the melting point was in the range of 95 to 96 °C.

Consider `CCOc1cc(C)c(C(=O)N=C(N)N)cc1S(C)(=O)=O`, for which the melting point was in the range of 201 to 203 °C.

Take `O=C1C2=C(CCCC2)C(Cl)N1c1ccc(Cl)cc1F` (centres undefined): the melting point was in the range of 89 to 90 °C.

As for `Oc1cncc2sccc12`, the melting point stood at 206 °C.

Turning to `COc1cc(/C(C#N)=C/c2ccc(C)c([N+](=O)[O-])c2)cc(OC)c1OC`, the melting point fell in the range of 162 to 163 °C.

The compound `COc1ccc(C(=O)c2ccc(OCc3nc(-c4ccccc4)oc3C)cc2)c(OC(C(=O)O)C(C)C)c1` (centres undefined) returned a melting point of 87 to 88 °C.

Regarding `NCC(=O)N1c2ccccc2N(Cc2ccccc2)C(=O)[C@H]2CCC[C@H]21` (relative stereo), the melting point lay within 163 to 165 °C.

Compound `Nc1nc(NC2CCCCC2)nc2c1ncn2C1CCCCC1` came in with a melting point of 109 to 117 °C.

On to `Cc1n[nH]c2cc(-c3nn(Cc4oc5ccc(F)cc5c(=O)c4-c4ccccc4)c4ncnc(N)c34)ccc12`, for which the melting point is 277 to 279 °C.

On to `CCOC(=O)CCCCc1ccc(OCc2nc(-c3ccccc3)oc2C)cc1`, for which the melting point lay in the range of 57 to 58 °C.

In turn, `COc1ccc(CN2C(=O)C3CCCC3=Nc3ccccc32)cc1` (centres undefined) yielded a melting point of 128 to 131 °C.

Turning to `COC(=O)Cn1c(=O)c2ccccc2n(CCCCl)c1=O`, the melting point is 144 to 146 °C.

The compound `COc1cc(OC)nc(-n2nc(C)n(N)c2=O)n1` showed a melting point of 219 °C.

Take `Cn1cccc1C1=C(Cl)C(=O)c2cccnc2C1=O`: the melting point was in the range of 168 to 169 °C.

As for `Cc1cc(OCc2ccc(-c3ccc(C(F)(F)F)c(F)c3)nc2C)ccc1OC(C)(C)C(=O)O`, the melting point was 175 to 176 °C.

Compound `NC(=NC(=O)Cn1c(Cl)ccc1Cl)NC(=O)c1ccccc1` gave a melting point of 212 to 213 °C.

For `COc1cc2nc(-c3ccc(Cl)cc3)nc(O)c2cc1OC`, the melting point was determined as 329 °C.

As to `O=[N+]([O-])c1c(C=NO)cccc1OCc1ccccc1`, the melting point is 141 to 142 °C.

`Cc1cccnc1C(=O)NC(C)(C)C` came in with a melting point of 56 to 58 °C.

Turning to `O=C1c2ccccc2C(Cc2ccnc(F)c2)(Cc2ccnc(F)c2)c2cc(O)ccc21`, the melting point is 219 to 221 °C.

Compound `Cc1cc2c(s1)Oc1ccccc1N=C2N1CCN(CCO)CC1` yielded a melting point of 87 to 89 °C.

With `Cc1cccc(NC(=O)NCC(=O)N(CC(=O)N2CCCCC2C)c2ccccc2)c1` (racemic), the melting point turned out to be 188 °C.

In turn, `CN1CCN(c2ccc([N+](=O)[O-])c(N)c2)CC1` registered a melting point of 109 to 110 °C.

Turning to `CN(Cc1cc2c(=O)c(C(=O)NCc3ccc(Cl)cc3)cn(C)c2o1)CC(CO)c1ccccc1` (centres undefined), the melting point is 141 to 148 °C.

Regarding `COc1cc(OC)c2c(=O)[nH]c(-c3cc(C)c(OCCN4CCN(C)CC4)c(C)c3)nc2c1`, the melting point fell in the range of 180 to 182 °C.

Regarding `Cc1nc2cc3c(cc2c(=O)[nH]1)C(N(C)c1ccc(C(=O)NC(CCc2nnn(CC(=O)O)n2)C(=O)O)c(F)c1)CC3` (mixture of isomers), the melting point was 196 to 199 °C.

With `O=S(=O)(c1ccc(F)cc1)C(F)(F)C(F)(F)C(F)(F)C(F)(F)C(F)(F)C(F)(F)C(F)(F)C(F)(F)S(=O)(=O)c1ccc(F)cc1`, the melting point lay within 109 to 110 °C.

Compound `NCC1COc2cc(F)cc(-c3cccc(Cl)c3)c2N1` (centres undefined) came in with a melting point of 76 °C.

In the case of `OC1(C2CC2)c2ccccc2OCc2ncccc21` (centres undefined), the melting point was 210 to 212 °C.

`Cc1nc2nc[nH]c2c(=O)[nH]1` yielded a melting point greater than 300 °C.

As to `Cc1cccc(Cl)c1N(C)S(=O)(=O)c1nc2scc(C)n2n1`, the melting point was in the range of 178 to 180 °C.

As for `CCCCCCCCCCCCCCCCCC(CCC(=O)O)[N+](=O)[O-]` (centres undefined), the melting point was in the range of 55 to 56 °C.

For the compound `CC(=O)c1nn2c3c(cccc13)CCC2`, the melting point lay within 62 to 64 °C.
